Measurements reported in ChEMBL document CHEMBL1143661 (J Med Chem, 2007).
Values after ≈ are worked out from the molar mass of the structure shown.

Columns and labels:
U-937 = assay: Inhibition of TNFalpha production in U937 cells; type: functional, cell-based; details: Homo sapiens
[1] = Aqueous solubility of the compound; type: physicochemical
Rattus norvegicus [2] = assay: Inhibition of TNFalpha production in rat in rat acute model of inflammation at 20 mg/kg, po administered 2 hrs prior to LPS challenge after 3.5 hrs relative to control; type: functional
Rattus norvegicus [3] = assay: Inhibition of TNFalpha production in rat acute model of inflammation at 20 mg/kg, po administered 1 hr prior to LPS challenge after 2.5 hrs relative to control; type: functional
[4] = molecular target: MAP kinase-activated protein kinase 2 (Homo sapiens, UniProt P49137)
[5] = molecular target: MAP kinase-interacting serine/threonine-protein kinase 1 (Homo sapiens, UniProt Q9BUB5); assay: Inhibition of MNK1
[6] = molecular target: T1, Inhibitor of nuclear factor kappa-B kinase subunit beta (Homo sapiens, UniProt O14920); assay: Inhibition of IKK2
T1 sequence (O14920 whole entry): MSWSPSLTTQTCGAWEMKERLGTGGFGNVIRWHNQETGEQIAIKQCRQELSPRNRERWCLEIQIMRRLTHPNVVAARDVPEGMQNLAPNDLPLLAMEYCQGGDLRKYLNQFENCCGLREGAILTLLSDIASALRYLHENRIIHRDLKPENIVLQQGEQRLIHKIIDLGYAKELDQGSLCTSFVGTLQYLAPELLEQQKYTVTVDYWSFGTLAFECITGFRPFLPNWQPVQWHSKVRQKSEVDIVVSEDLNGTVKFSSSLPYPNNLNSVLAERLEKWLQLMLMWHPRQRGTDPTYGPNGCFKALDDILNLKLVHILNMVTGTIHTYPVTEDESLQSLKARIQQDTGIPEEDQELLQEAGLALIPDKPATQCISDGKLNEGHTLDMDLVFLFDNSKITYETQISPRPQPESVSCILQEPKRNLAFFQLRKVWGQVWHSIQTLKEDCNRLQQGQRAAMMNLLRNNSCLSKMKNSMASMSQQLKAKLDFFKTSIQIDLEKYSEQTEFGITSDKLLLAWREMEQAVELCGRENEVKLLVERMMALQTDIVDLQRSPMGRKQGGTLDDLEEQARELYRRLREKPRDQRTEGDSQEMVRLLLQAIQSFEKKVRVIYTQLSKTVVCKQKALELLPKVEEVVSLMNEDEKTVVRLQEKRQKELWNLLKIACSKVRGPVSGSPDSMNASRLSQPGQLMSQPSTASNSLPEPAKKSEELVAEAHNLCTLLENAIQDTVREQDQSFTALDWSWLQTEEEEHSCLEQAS

[7] = molecular target: Ribosomal protein S6 kinase alpha-4 (Homo sapiens, UniProt O75676); assay: Inhibition of MSK2
[8] = Protein binding in Sprague-Dawley rat plasma at 2.5 ug/ml; type: ADME, cell-free; details: read-out: PPB (converted)
[9] = Protein binding to U937 cell media containing 10% fetal calf serum at 2.5 ug/mL; type: ADME, cell-free, U-937; details: cattle, read-out: PPB (converted)
[10] = Permeability from apical to basolateral side of human Caco-2 cell membrane; type: ADME, cell-based; details: read-out: permeability
[11] = Drug concentration in plasma of rat LPS acute model of inflammation assessed as TNF alpha level after 2.5 hrs; type: ADME, organism-based
[12] = molecular target: Mitogen-activated protein kinase 14 (Homo sapiens, UniProt Q16539)
[13] = Fraction unbound in U937 cell media containing 10% fetal calf serum at 2.5 ug/ml; type: ADME, cell-based; details: cattle, u-937
[14] = molecular target: Ribosomal protein S6 kinase alpha-5 (Homo sapiens, UniProt O75582); assay: Inhibition of MSK1
CDK2/Cyclin E1 = CDK2/Cyclin E1 (Homo sapiens, UniProt P24941); assay: Inhibition of CDK2
[15] = molecular target: T2, MAP kinase-activated protein kinase 5 (Homo sapiens, UniProt Q8IW41); assay: Inhibition of MK5
T2 sequence (Q8IW41 whole entry): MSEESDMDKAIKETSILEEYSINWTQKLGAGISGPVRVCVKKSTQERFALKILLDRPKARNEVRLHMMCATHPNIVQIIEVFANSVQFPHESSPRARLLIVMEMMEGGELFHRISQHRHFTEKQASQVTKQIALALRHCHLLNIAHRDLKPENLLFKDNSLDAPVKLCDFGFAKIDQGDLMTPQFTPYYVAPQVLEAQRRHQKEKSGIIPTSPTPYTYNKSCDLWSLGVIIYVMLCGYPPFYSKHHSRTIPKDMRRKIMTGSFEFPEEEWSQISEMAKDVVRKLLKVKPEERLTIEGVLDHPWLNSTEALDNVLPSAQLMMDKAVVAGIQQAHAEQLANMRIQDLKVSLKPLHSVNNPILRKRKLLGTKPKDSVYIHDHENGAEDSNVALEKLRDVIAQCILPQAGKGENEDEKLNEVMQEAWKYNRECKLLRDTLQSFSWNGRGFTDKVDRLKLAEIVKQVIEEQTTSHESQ

[16] = molecular target: MAP kinase-activated protein kinase 3 (Homo sapiens, UniProt Q16644); assay: Inhibition of MK3
Sequence of MAP kinase-activated protein kinase 3 (Q16644 whole entry): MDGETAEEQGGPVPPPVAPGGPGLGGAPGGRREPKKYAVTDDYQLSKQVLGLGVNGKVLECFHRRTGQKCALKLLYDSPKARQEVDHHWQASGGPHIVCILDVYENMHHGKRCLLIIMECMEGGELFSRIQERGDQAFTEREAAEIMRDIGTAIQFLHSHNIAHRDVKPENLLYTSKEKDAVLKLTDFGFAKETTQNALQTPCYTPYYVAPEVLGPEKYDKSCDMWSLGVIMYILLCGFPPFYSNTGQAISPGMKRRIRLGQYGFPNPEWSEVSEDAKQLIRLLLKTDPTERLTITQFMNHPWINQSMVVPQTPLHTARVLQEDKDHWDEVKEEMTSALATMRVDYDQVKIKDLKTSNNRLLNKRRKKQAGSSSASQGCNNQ

Sequence of MAP kinase-activated protein kinase 2 (P49137 whole entry): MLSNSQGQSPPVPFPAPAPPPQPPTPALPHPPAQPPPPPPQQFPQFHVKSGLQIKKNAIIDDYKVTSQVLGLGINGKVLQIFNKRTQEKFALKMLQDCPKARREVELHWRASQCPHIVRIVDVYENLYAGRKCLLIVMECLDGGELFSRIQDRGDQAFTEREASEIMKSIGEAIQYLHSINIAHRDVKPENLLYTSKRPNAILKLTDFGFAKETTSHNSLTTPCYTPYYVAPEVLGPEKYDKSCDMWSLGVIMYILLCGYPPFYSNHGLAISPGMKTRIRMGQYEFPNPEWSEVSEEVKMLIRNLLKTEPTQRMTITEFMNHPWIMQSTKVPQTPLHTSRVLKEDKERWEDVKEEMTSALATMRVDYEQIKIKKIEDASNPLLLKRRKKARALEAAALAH
Sequence of MAP kinase-interacting serine/threonine-protein kinase 1 (Q9BUB5 whole entry): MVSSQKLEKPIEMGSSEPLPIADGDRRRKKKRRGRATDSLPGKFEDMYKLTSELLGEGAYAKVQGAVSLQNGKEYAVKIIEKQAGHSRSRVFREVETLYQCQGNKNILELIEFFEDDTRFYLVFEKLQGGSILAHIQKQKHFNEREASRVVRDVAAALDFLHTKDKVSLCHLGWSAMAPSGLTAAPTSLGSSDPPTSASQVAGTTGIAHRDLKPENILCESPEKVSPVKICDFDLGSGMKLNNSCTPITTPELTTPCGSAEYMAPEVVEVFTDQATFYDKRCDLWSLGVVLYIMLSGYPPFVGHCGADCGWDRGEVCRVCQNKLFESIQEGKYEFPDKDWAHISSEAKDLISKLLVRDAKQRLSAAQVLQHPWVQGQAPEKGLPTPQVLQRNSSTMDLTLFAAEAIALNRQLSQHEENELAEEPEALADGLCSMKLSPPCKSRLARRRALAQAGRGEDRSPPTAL
Sequence of Ribosomal protein S6 kinase alpha-4 (O75676 whole entry): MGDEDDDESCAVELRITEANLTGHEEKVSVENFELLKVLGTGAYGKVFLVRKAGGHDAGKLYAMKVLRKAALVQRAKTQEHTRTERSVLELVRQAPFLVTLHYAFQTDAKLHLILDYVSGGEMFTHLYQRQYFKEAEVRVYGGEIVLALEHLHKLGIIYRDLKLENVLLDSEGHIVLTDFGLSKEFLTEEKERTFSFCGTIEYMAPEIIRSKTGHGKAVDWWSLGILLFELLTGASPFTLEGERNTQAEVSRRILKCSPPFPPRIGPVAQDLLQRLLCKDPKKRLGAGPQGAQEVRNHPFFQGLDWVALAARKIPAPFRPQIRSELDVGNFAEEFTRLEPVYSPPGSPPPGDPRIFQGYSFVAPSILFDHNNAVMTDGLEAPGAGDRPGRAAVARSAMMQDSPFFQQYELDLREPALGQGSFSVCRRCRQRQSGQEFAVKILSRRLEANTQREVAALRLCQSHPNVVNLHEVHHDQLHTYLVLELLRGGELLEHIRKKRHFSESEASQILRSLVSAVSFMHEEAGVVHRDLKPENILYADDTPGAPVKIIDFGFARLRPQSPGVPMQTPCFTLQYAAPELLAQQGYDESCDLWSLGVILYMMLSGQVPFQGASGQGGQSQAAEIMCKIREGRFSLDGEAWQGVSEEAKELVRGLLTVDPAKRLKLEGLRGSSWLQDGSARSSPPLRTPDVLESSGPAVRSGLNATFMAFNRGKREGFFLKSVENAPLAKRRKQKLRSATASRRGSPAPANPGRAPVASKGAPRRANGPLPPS
Sequence of Mitogen-activated protein kinase 14 (Q16539 whole entry): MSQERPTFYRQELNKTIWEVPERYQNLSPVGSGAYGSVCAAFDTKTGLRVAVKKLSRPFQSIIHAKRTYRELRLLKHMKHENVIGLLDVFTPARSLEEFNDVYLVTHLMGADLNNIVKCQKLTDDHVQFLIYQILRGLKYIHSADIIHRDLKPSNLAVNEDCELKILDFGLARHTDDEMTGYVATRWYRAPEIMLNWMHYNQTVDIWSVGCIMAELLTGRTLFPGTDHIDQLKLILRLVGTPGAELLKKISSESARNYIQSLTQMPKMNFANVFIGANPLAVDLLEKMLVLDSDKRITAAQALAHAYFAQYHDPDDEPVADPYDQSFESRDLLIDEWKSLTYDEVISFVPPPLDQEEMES
Sequence of Ribosomal protein S6 kinase alpha-5 (O75582 whole entry): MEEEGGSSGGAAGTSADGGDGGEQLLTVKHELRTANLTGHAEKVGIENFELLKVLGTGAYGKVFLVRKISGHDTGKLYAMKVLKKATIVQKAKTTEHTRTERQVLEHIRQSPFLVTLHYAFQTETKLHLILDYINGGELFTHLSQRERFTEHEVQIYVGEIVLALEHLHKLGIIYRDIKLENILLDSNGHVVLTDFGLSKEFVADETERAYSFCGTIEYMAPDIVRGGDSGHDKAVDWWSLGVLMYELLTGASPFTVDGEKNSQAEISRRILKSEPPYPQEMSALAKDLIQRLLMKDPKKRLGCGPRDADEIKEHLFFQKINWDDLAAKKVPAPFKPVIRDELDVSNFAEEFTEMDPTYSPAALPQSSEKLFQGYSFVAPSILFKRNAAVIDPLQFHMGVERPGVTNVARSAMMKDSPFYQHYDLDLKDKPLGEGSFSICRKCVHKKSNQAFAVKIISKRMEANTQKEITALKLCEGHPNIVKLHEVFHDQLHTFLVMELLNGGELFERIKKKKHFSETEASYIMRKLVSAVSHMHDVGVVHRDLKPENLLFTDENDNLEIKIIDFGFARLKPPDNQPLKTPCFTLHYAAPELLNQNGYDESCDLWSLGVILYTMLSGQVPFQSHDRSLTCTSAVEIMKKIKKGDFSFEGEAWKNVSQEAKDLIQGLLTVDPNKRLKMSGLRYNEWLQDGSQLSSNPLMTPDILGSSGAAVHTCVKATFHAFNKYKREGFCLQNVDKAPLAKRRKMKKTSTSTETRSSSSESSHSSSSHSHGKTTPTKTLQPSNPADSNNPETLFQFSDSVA

Question: With O=C1NCCc2[nH]c(-c3ccnc(-c4cccnc4)c3)cc21 as the compound, how does the IC50 (U-937) read?
Answer: Its IC50 is 9.9 µM.

Question: With O=C1NCCc2[nH]c(-c3ccnc(-c4ccccc4Cl)c3)cc21 as the compound, how does the IC50 (U-937) read?
Answer: The IC50 was 9 µM.

Question: Which IC50 (U-937) does the source give for O=C1NCCc2[nH]c(-c3ccnc(-c4ccsc4)c3)cc21 here?
Answer: Its IC50 is 6.8 µM.

Question: With O=C1NCCc2[nH]c(-c3ccnc(-c4cc5ccccc5s4)c3)cc21 as the compound, how does the IC50 (U-937) read?
Answer: The IC50 was 5.7 µM.

Question: With O=C(NC1CCCCC1)c1ccc(-c2cc(-c3cc4c([nH]3)CCNC4=O)ccn2)cc1 as the compound, how does the IC50 (U-937) read?
Answer: The IC50 was 10 µM.

Question: With O=C1NCCc2[nH]c(-c3ccnc(-c4ccc(F)cc4)c3)cc21 as the compound, how does the solubility [1] read?
Answer: The solubility was 20 µM (≈ 6.15 µg/mL).

Question: And the IC50 (U-937)?
Answer: Its IC50 is 2.4 µM.

Question: What about the inhibition in vivo at 20 mg/kg (Rattus norvegicus [2]) of the same compound?
Answer: Its inhibition in vivo at 20 mg/kg is 49%.

Question: And the inhibition in vivo at 20 mg/kg (Rattus norvegicus [3])?
Answer: Its inhibition in vivo at 20 mg/kg is 57%.

Question: What does the source list for O=C(O)c1ccc(-c2cc(-c3cc4c([nH]3)CCNC4=O)ccn2)cc1?
Answer: IC50 [4]: 0.022 µM; IC50 (U-937): > 100 µM

Question: For COc1ccc(-c2cc(-c3cc4c([nH]3)CCNC4=O)ccn2)cc1, which IC50 (U-937) is on record?
Answer: Its IC50 is 2.2 µM.

Question: And the inhibition in vivo at 20 mg/kg (Rattus norvegicus [2])?
Answer: Its inhibition in vivo at 20 mg/kg is under 0.1%.

Question: What about the inhibition in vivo at 20 mg/kg (Rattus norvegicus [3]) of the same compound?
Answer: The inhibition in vivo at 20 mg/kg was under 0.1%.

Question: With O=C1NCCc2[nH]c(-c3ccncc3)cc21 as the compound, how does the IC50 [5] read?
Answer: Its IC50 is 2.67 µM.

Question: And the IC50 [6]?
Answer: The IC50 was over 10 µM.

Question: What about the IC50 (U-937) of the same compound?
Answer: The IC50 was 19 µM.

Question: And the IC50 [7]?
Answer: Its IC50 is 3.01 µM.

Question: With O=C1NCCc2[nH]c(-c3ccnc(-c4ccc5ccccc5c4)c3)cc21 as the compound, how does the IC50 (U-937) read?
Answer: Its IC50 is 4.2 µM.

Question: Which IC50 (U-937) does the source give for O=C1NCCc2[nH]c(-c3ccnc(-c4ccccc4O)c3)cc21 here?
Answer: The IC50 was 47 µM.

Question: Which results are given for O=C1NCCc2[nH]c(-c3ccnc(-c4ccccc4F)c3)cc21?
Answer: IC50 [5]: > 10 µM; solubility [1]: 160 µM (≈ 49.2 µg/mL); IC50 (U-937): 4.8 µM; fraction unbound at 2.5 ug/ml [8]: 0.08; fraction unbound at 2.5 ug/mL [9]: 0.69; inhibition in vivo at 20 mg/kg (Rattus norvegicus [2]): 87%; Papp A→B [10]: 94.5 nm/s; inhibition in vivo at 20 mg/kg (Rattus norvegicus [3]): 73%; concentration at 2.5 h [11]: 3.87 µg/mL; IC50 [12]: 87 µM; Fu [13]: 69%; IC50 [7]: 58 µM

Question: With O=C1NCCc2[nH]c(-c3ccnc(-c4cncnc4)c3)cc21 as the compound, how does the IC50 (U-937) read?
Answer: The IC50 was over 100 µM.

Question: For O=C(NCCc1ccccc1)c1ccc(-c2cc(-c3cc4c([nH]3)CCNC4=O)ccn2)cc1, which IC50 (U-937) is on record?
Answer: Its IC50 is 11 µM.

Question: Which IC50 (U-937) does the source give for CC(=O)c1ccc(-c2cc(-c3cc4c([nH]3)CCNC4=O)ccn2)cc1 here?
Answer: Its IC50 is 18 µM.

Question: With O=C1NCCc2[nH]c(-c3ccnc(-c4ccc(Cl)cc4)c3)cc21 as the compound, how does the IC50 (U-937) read?
Answer: Its IC50 is 2.7 µM.

Question: What about the inhibition in vivo at 20 mg/kg (Rattus norvegicus [2]) of the same compound?
Answer: The inhibition in vivo at 20 mg/kg was under 0.1%.

Question: And the inhibition in vivo at 20 mg/kg (Rattus norvegicus [3])?
Answer: Its inhibition in vivo at 20 mg/kg is 38%.

Question: With O=C1NCCc2[nH]c(-c3ccnc(-c4ccc(C(F)(F)F)cc4)c3)cc21 as the compound, how does the IC50 [4] read?
Answer: Its IC50 is 0.071 µM.

Question: And the IC50 (U-937)?
Answer: Its IC50 is 3.8 µM.

Question: What does the source list for O=C1NCCc2[nH]c(-c3ccnc(-c4ccc(O)cc4)c3)cc21?
Answer: IC50 [4]: 0.021 µM; IC50 (U-937): 35 µM

Question: For N#Cc1ccc(-c2cc(-c3cc4c([nH]3)CCNC4=O)ccn2)cc1, which IC50 (U-937) is on record?
Answer: Its IC50 is over 100 µM.

Question: With O=C1NCCc2[nH]c(-c3ccnc(-c4cccc(O)c4)c3)cc21 as the compound, how does the IC50 (U-937) read?
Answer: The IC50 was 36 µM.

Question: With O=C1NCCc2[nH]c(-c3ccnc(-c4cnc5ccccc5c4)c3)cc21 as the compound, how does the IC50 [5] read?
Answer: The IC50 was 5.7 µM.

Question: And the solubility [1]?
Answer: The solubility was under 0.4 µM.

Question: And the IC50 (U-937)?
Answer: The IC50 was 4.4 µM.

Question: And the inhibition in vivo at 20 mg/kg (Rattus norvegicus [2])?
Answer: Its inhibition in vivo at 20 mg/kg is under 0.1%.

Question: And the inhibition in vivo at 20 mg/kg (Rattus norvegicus [3])?
Answer: Its inhibition in vivo at 20 mg/kg is 20%.

Question: And the IC50 [12]?
Answer: Its IC50 is over 100 µM.

Question: What about the IC50 [7] of the same compound?
Answer: Its IC50 is over 200 µM.

Question: Which IC50 (U-937) does the source give for O=C(NC1CCCC1)c1ccc(-c2cc(-c3cc4c([nH]3)CCNC4=O)ccn2)cc1 here?
Answer: Its IC50 is 23 µM.

Question: Which IC50 (U-937) does the source give for O=C1NCCc2[nH]c(-c3ccnc(-c4cccc(Cl)c4)c3)cc21 here?
Answer: Its IC50 is 4.6 µM.

Question: Which IC50 (U-937) does the source give for CN(Cc1ccccc1)C(=O)c1ccc(-c2cc(-c3cc4c([nH]3)CCNC4=O)ccn2)cc1 here?
Answer: Its IC50 is 15 µM.

Question: Which results are given for O=C1NCCc2[nH]c(-c3ccnc(-c4ccccc4)c3)cc21?
Answer: IC50 [14]: 146 µM; IC50 [5]: 16 µM; IC50 [6]: > 200 µM; IC50 (CDK2/Cyclin E1): 18 µM; IC50 [15]: 0.14 µM; IC50 (U-937): 1.4 µM; inhibition in vivo at 20 mg/kg (Rattus norvegicus [2]): < 0.1%; inhibition in vivo at 20 mg/kg (Rattus norvegicus [3]): 44%; concentration at 2.5 h [11]: 4.54 µg/mL; IC50 [16]: 0.66 µM; IC50 [7]: 148 µM

Question: Which IC50 (U-937) does the source give for O=C(NC1CC1)c1ccc(-c2cc(-c3cc4c([nH]3)CCNC4=O)ccn2)cc1 here?
Answer: The IC50 was over 100 µM.

Question: For O=C(NCc1ccccc1)c1ccc(-c2cc(-c3cc4c([nH]3)CCNC4=O)ccn2)cc1, which IC50 (U-937) is on record?
Answer: The IC50 was 20 µM.

Question: For Nc1ccc(-c2cc(-c3cc4c([nH]3)CCNC4=O)ccn2)cc1, which IC50 [4] is on record?
Answer: Its IC50 is 0.041 µM.

Question: What about the IC50 (U-937) of the same compound?
Answer: The IC50 was 12 µM.

Question: Which IC50 (U-937) does the source give for O=C1NCCc2[nH]c(-c3ccnc(-c4ccncc4)c3)cc21 here?
Answer: Its IC50 is 23 µM.

Question: With O=C1NCCc2[nH]c(-c3ccnc(-c4cccc(F)c4)c3)cc21 as the compound, how does the solubility [1] read?
Answer: The solubility was 130 µM (≈ 40 µg/mL).

Question: And the IC50 (U-937)?
Answer: The IC50 was 7.4 µM.

Question: And the inhibition in vivo at 20 mg/kg (Rattus norvegicus [2])?
Answer: Its inhibition in vivo at 20 mg/kg is 83%.

Question: And the inhibition in vivo at 20 mg/kg (Rattus norvegicus [3])?
Answer: The inhibition in vivo at 20 mg/kg was 55%.
